Experimental data published in the supplement of paper PMC10627819.
Values after ≈ are worked out from the molar mass of the structure shown.

Assays:
[1] = system: S. pneumoniae D39V
[2] = system: B. subtilis 168
[3] = system: S. aureus Newman
[4] = system: S. aureus DSM 20231
[5] = system: S. pneumoniae D39V; assay: fitness (endpoint OD595 vs no drug) (fraction); higher = more growth
Procedure, shortened: (§1)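 With the first reading as background, OD595 was measured every 30 min for 14 h in 384-well plates kept at 37 °C and inoculated at OD595 0.01. TSB, LB Lennox or CY was the medium. Fitness is the optical density at the transition into stationary phase divided by the robust mean of no-drug control wells, with a cap of 1.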

[6] = system: B. subtilis 168; assay: as above
Procedure, shortened: as §1

[7] = system: S. aureus DSM 20231; assay: as above
Procedure, shortened: as §1

[8] = system: S. aureus Newman; assay: as above
Procedure, shortened: as §1

CC(=O)Oc1ccccc1C(=O)O [Acetylsalicylic acid]
Details	MIC [µg/mL]
[1]	2000 (≈ 11100 µM)
[2]	2000 (≈ 11100 µM)
[3]	2000 (≈ 11100 µM)
[4]	1000 (≈ 5550 µM)

fitness
Details	[5]	[6]	[7]
250 µg/mL	0.967	0.948	0.991
500 µg/mL	0.965	0.911	0.888
1000 µg/mL	0.924	0.745	0.522

COc1cccc2c1C(=O)c1c(O)c3c(c(O)c1C2=O)C[C@@](O)(C(=O)CO)C[C@@H]3O[C@H]1C[C@H](N)[C@H](O)[C@H](C)O1 [Doxorubicin]
Details	MIC [µg/mL]
[1]	1.2 (≈ 2.21 µM)
[2]	5 (≈ 9.2 µM)
[3]	2.78 (≈ 5.11 µM)
[4]	2.78 (≈ 5.11 µM)

fitness
Details	0.25 µg/mL	0.5 µg/mL	0.625 µg/mL	1 µg/mL	1.25 µg/mL	2.5 µg/mL
[5]	0.86	0.903	–	0.781	–	–
[6]	–	–	0.946	–	0.918	0.816
[7]	–	–	0.967	–	0.907	0.827
[8]	–	–	0.896	–	0.791	0.68

CN(C)[C@@H]1C(O)=C(C(N)=O)C(=O)[C@@]2(O)C(O)=C3C(=O)c4c(O)ccc(Cl)c4[C@@](C)(O)[C@H]3C[C@@H]12 [Chlortetracycline]
Details	MIC [µg/mL]
[1]	1.5 (≈ 3.13 µM)
[2]	0.4 (≈ 0.835 µM)
[3]	0.095 (≈ 0.198 µM)
[4]	0.15 (≈ 0.313 µM)

fitness
Details	0.012 µg/mL	0.0238 µg/mL	0.024 µg/mL	0.0475 µg/mL	0.048 µg/mL	0.095 µg/mL	0.19 µg/mL
[5]	0.857	–	0.703	–	0.526	–	–
[6]	–	–	–	0.895	–	0.8	0.524
[7]	0.793	–	0.441	–	0.073	–	–
[8]	0.683	0.237	0.402	0.0993	0.0667	0.0061	–

Cc1ncc([N+](=O)[O-])n1CCO [Metronidazole]
Details	MIC [µg/mL]
[1]	10 (≈ 58.4 µM)
[2]	5 (≈ 29.2 µM)
[3]	3 (≈ 17.5 µM)
[4]	3 (≈ 17.5 µM)

fitness
Details	0.625 µg/mL	0.781 µg/mL	1.25 µg/mL	1.562 µg/mL	2.5 µg/mL	3.124 µg/mL	5 µg/mL
[5]	–	–	≥ 1	–	≥ 1	–	0.997
[6]	0.955	–	0.946	–	0.94	–	–
[7]	≥ 1	–	≥ 1	–	≥ 1	–	–
[8]	≥ 1	≥ 1	≥ 1	≥ 1	≥ 1	0.999	–

C[C@@H]1O[C@@H]1P(=O)(O)O [Fosfomycin]
Details	MIC [µg/mL]
[1]	6.25 (≈ 45.3 µM)
[2]	12.5 (≈ 90.5 µM)
[3]	3.5 (≈ 25.4 µM)
[4]	3.5 (≈ 25.4 µM)

Details	fitness
[5], 1.25 µg/mL	0.966
[5], 2.5 µg/mL	0.895
[5], 5 µg/mL	0.716
[6], 1.562 µg/mL	0.712
[6], 3.124 µg/mL	0.594
[6], 6.248 µg/mL	0.422
[7], 0.781 µg/mL	0.875
[7], 1.562 µg/mL	0.693
[7], 3.124 µg/mL	0.535
[8], 0.781 µg/mL	0.686
[8], 1.562 µg/mL	0.485
[8], 3.124 µg/mL	0.123

CN(C)c1cc(NC(=O)CNC(C)(C)C)c(O)c2c1C[C@H]1C[C@H]3[C@H](N(C)C)C(O)=C(C(N)=O)C(=O)[C@@]3(O)C(O)=C1C2=O [Tigecycline]
Details	MIC [µg/mL]
[1]	3 (≈ 5.12 µM)
[2]	0.312 (≈ 0.533 µM)
[3]	0.18 (≈ 0.307 µM)
[4]	0.18 (≈ 0.307 µM)

Details	fitness
[5], 0.325 µg/mL	0.971
[5], 0.65 µg/mL	0.959
[5], 1.3 µg/mL	0.966
[5], 2.6 µg/mL	0.965
[6], 0.039 µg/mL	0.953
[6], 0.078 µg/mL	0.95
[6], 0.156 µg/mL	0.933
[8], 0.039 µg/mL	0.975
[8], 0.078 µg/mL	0.959
[8], 0.156 µg/mL	0.973

CO/N=C(\C(=O)N[C@@H]1C(=O)N2C(C(=O)O)=C(COC(C)=O)CS[C@H]12)c1csc(N)n1 [Cefotaxime]
Details	MIC [µg/mL]
[1]	0.008 (≈ 0.0176 µM)
[3]	2.5 (≈ 5.49 µM)
[4]	0.173 (≈ 0.38 µM)

Details	fitness
[5], 0.0018 µg/mL	≥ 1
[5], 0.0035 µg/mL	0.998
[5], 0.007 µg/mL	0.83
[6], 0.0625 µg/mL	0.477
[6], 0.125 µg/mL	0.338
[6], 0.25 µg/mL	0.205
[6], 0.5 µg/mL	0.113
[6], 1 µg/mL	0.0654
[6], 2 µg/mL	0.0508
[7], 0.039 µg/mL	0.935
[7], 0.078 µg/mL	0.869
[7], 0.155 µg/mL	0.951
[7], 0.156 µg/mL	0.844
[7], 0.31 µg/mL	0.825
[7], 0.312 µg/mL	0.676
[7], 0.62 µg/mL	0.669
[8], 0.039 µg/mL	0.829
[8], 0.078 µg/mL	0.786
[8], 0.156 µg/mL	0.729
[8], 0.312 µg/mL	0.462
[8], 0.625 µg/mL	0.0743
[8], 1.25 µg/mL	0.022
[8], 2.5 µg/mL	0.021

COc1ccc(C[C@H](N)C(=O)N[C@H]2[C@@H](O)[C@H](n3cnc4c(N(C)C)ncnc43)O[C@@H]2CO)cc1 [Puromycin]
Details	MIC [µg/mL]
[1]	12.5 (≈ 26.5 µM)
[2]	1.56 (≈ 3.31 µM)
[3]	1.8 (≈ 3.82 µM)
[4]	1.8 (≈ 3.82 µM)

fitness
Details	0.39 µg/mL	0.78 µg/mL	1 µg/mL	1.56 µg/mL	2 µg/mL	4 µg/mL
[5]	–	–	≥ 1	–	0.977	0.76
[6]	0.931	0.929	–	0.94	–	–
[7]	≥ 1	≥ 1	–	≥ 1	–	–
[8]	0.985	0.993	–	≥ 1	–	–

N#CC(C#N)=NNc1cccc(Cl)c1 [CCCP]
Details	MIC [µg/mL]
[1]	4.5 (≈ 22 µM)
[2]	2.3 (≈ 11.2 µM)

[5]
Details	fitness
0.575 µg/mL	0.981
1.15 µg/mL	0.968
2.3 µg/mL	0.942

C[C@H]1c2cccc(O)c2C(=O)C2=C(O)[C@]3(O)C(=O)C(C(N)=O)=C(O)[C@@H](N(C)C)[C@@H]3[C@@H](O)[C@@H]21 [Doxycycline]
Details	MIC [µg/mL]
[2]	0.08 (≈ 0.18 µM)
[4]	0.034 (≈ 0.0765 µM)

fitness
Details	0.0155 µg/mL	0.02 µg/mL	0.031 µg/mL	0.04 µg/mL	0.062 µg/mL	0.08 µg/mL
[5]	0.789	–	0.73	–	0.59	–
[6]	–	0.876	–	0.754	–	0.457

CO/N=C(\C(=O)N[C@@H]1C(=O)N2C(C(=O)O)=C(COC(N)=O)CS[C@H]12)c1ccco1 [Cefuroxime]
Details	MIC [µg/mL]
[1]	0.25 (≈ 0.589 µM)
[2]	2 (≈ 4.71 µM)
[3]	0.25 (≈ 0.589 µM)
[4]	0.25 (≈ 0.589 µM)

[6]
Details	fitness
0.195 µg/mL	0.319
0.39 µg/mL	0.26
0.78 µg/mL	0.212
1.562 µg/mL	0.332
3.125 µg/mL	0.264
6.25 µg/mL	0.227
